Source: PMC9917025, “(2-Hydroxy-3-Methoxybenzylidene)thiazolo[3,2-a]pyrimidines: Synthesis, Self-Assembly in the Crystalline Phase and Cytotoxic Activity” (International Journal of Molecular Sciences, 2023)

Columns and labels:
[1] = system: MCF−7 (human breast adenocarcinoma); assay: MTT cytotoxicity assay, MCF-7 cells; format: cell-based; details: MCF7, 48 h incubation, mean ± SD, triplicate
Protocol: The cytotoxic effect on cells was determined by the colorimetric method of cell proliferation—MTT test. […] C. Formazan crystals were added to 100 µL of DMSO. The optical density was recorded at 540 nm on an Invitrologic microplate reader (Novosibirsk, Russia). The experiments for all compounds were repeated three times.

[2] = system: M-HeLa clone 11 (epithelioid carcinoma of the cervix, subline HeLa, clone M-HeLa); assay: MTT cytotoxicity assay, M-HeLa cells; format: cell-based; details: for IC50: Homo sapiens, M-HeLa, MTT, 48 h incubation, mean ± SD, triplicate; for selectivity index (SI): ratio between IC50 for normal cells and IC50 for tumor cells, with respect to M-HeLa cell line
Excerpt: (§1) For the experiments, the tumor cell cultures of M-HeLa clone 11 (epithelioid carcinoma of the cervix, subline HeLa., clone M-HeLa), HuTu 80, human duodenal adenocarcinoma, MCF7—human breast adenocarcinoma (pleural fluid) collected from the Institute of Cytology, Russian Academy of Sciences (St. Petersburg, Russia); PC3—prostate adenocarcinoma cell line collected from ATCC (American Type Cell Collection, Manassas, VA, USA; CRL 1435; human liver cells (Chang liver) and the Research Institute of Virology of the Russian Academy of Medical Sciences (Moscow, Russia) were used for cytotoxicity analysis.
(§2) The cytotoxic effect on cells was determined by the colorimetric method of cell proliferation—MTT test. The cells were seeded on a 96-well Nunc plate at a concentration of 5 × 10^3 cells per well in a volume of 100 µL of medium and cultured in a CO2 incubator at 37 °C until a monolayer was formed. Then, the nutrient medium was removed and 100 μL of the test drug solution in these dilutions was added to the wells prepared directly in the nutrient medium with the addition of 5% DMSO to improve solubility. After 48 h of cell incubation with test compounds, the nutrient medium was removed from the plates and 100 μL of serum-free nutrient medium with MTT at a concentration of 0.5 mg/mL was added and incubated for 4 h at 37 °C. C. Formazan crystals were added to 100 µL of DMSO. The optical density was recorded at 540 nm on an Invitrologic microplate reader (Novosibirsk, Russia). The experiments for all compounds were repeated three times.

[3] = system: Chang liver (HeLa derivative), human liver cells; assay: MTT cytotoxicity assay, normal Chang liver cells; format: cell-based; details: for IC50: Homo sapiens, HeLa, MTT, 48 h incubation, mean ± SD, triplicate, read-out: IC50 (µM) Chang Liver (HeLa), normal cell line
Excerpt: as §1, §2

[4] = system: HuTu 80 (human duodenal adenocarcinoma); assay: MTT cytotoxicity assay, HuTu 80 cells; format: cell-based; details: for IC50: Homo sapiens, HuTu80, MTT, 48 h incubation, mean ± SD, triplicate
Excerpt: as §1, §2

[5] = system: PC3 (prostate adenocarcinoma cell line); assay: MTT cytotoxicity assay, PC3 cells; format: cell-based; details: Homo sapiens, PC-3, 48 h incubation, mean ± SD, triplicate
Excerpt: as §1, §2

Row | melting point | SMILES | IC50 [1] | IC50 [2] | IC50 [3] | IC50 [4] | IC50 [5] | selectivity index (SI) [2] | activity on normal cells, Chang liver (in words) [3] | cytotoxicity towards HuTu 80 (in words) [4] | cytotoxicity against M-HeLa (in words) [2] | efficiency of cytotoxicity towards M-HeLa compared to Sorafenib ([2]; relative to reference drug Sorafenib)
1 | 234 to 236 °C | CCOC(=O)C1=C(C)N=c2s/c(=C\c3cccc(OC)c3O)c(=O)n2C1c1ccc(Br)cc1 (stereo not shown) [Compound 6, Ethyl 5-(4-bromophenyl)-(Z)−2-(2-hydroxy−3-methoxybenzylidene)−7-methyl−3-oxo−2,3-dihydro−5H-thiazolo[3,2-a]pyrimidine−6-carboxylate] | > 100 µM | 85 ± 7.8 µM | 64.2 ± 5.1 µM | 90.3 ± 8.1 µM | 100 ± 8.6 µM |  |  |  |  | 
2 |  | CNC(=O)c1cc(Oc2ccc(NC(=O)Nc3ccc(Cl)c(C(F)(F)F)c3)cc2)ccn1 [Sorafenib, reference compound] |  | 25 ± 1.8 µM |  | 13 ± 1.2 µM | 12.7 ± 1.1 µM | lower than 1 |  |  |  | 
3 | 209 to 211 °C | COc1cccc(/C=c2\sc3n(c2=O)C(c2ccc(C)cc2)C(C(C)=O)=C(C)N=3)c1O (stereo not shown) [Compound 1, 6-Acetyl-(Z)−2-(2-hydroxy−3-methoxybenzylidene)−7-methyl−5-(p-tolyl)−2H-thiazolo[3,2-a]pyrimidine−3(5H)-one] | > 100 µM | 88 ± 7 µM | > 100 µM | 88 ± 6.9 µM | 57.4 ± 4.5 µM |  |  |  |  | 
4 | 190 to 192 °C | CCOC(=O)C1=C(C)N=c2s/c(=C\c3cccc(OC)c3O)c(=O)n2C1c1cccc(Br)c1 (stereo not shown) [Compound 5, Ethyl 5-(3-bromophenyl)-(Z)−2-(2-hydroxy−3-methoxybenzylidene)−7-methyl−3-oxo−2,3-dihydro−5H-thiazolo[3,2-a]pyrimidine−6-carboxylate] | > 100 µM | > 100 µM | 51.4 ± 4.1 µM | 43.3 ± 3.4 µM | > 100 µM |  | Moderate cytotoxicity | Moderate cytotoxicity |  | 
5 | 206 to 208 °C | CCOC(=O)C1=C(C)N=c2s/c(=C\c3cccc(OC)c3O)c(=O)n2C1c1cccc([N+](=O)[O-])c1 (stereo not shown) [Compound 2, Ethyl (Z)−2-(2-hydroxy−3-methoxybenzylidene)−7-methyl−5-(3-nitrophenyl)−3-oxo−2,3-dihydro−5H-thiazolo[3,2-a]pyrimidine−6-carboxylate] | 72 ± 5.8 µM | 16.2 ± 1.3 µM | > 100 µM | 90 ± 8 µM | > 100 µM | higher than 6 | low biological activity |  | high cytotoxicity | two times higher
6 | 193 to 195 °C | CCOC(=O)C1=C(C)N=c2s/c(=C\c3cccc(OC)c3O)c(=O)n2C1c1ccccc1OC (stereo not shown) [Compound 3, Ethyl (Z)-2-(2-hydroxy-3-methoxybenzylidene)-7-methyl-5-(2-methoxyphenyl)-3-oxo-2,3-dihydro-5H-thiazolo[3,2-a]pyrimidine-6-carboxylate] | > 100 µM | 98.1 ± 7.7 µM | 96 ± 7.5 µM | > 100 µM | 54.1 ± 4.3 µM |  |  |  |  | 
7 | 231 to 233 °C | CCOC(=O)C1=C(C)N=c2s/c(=C\c3cccc(OC)c3O)c(=O)n2C1c1ccccc1 (stereo not shown) [Compound 4, Ethyl (Z)−2-(2-hydroxy−3-methoxybenzylidene)−7-methyl−5-phenyl−3-oxo−2,3-dihydro−5H-thiazolo[3,2-a]pyrimidine−6-carboxylate] | > 100 µM | > 100 µM | > 100 µM | > 100 µM | > 100 µM |  |  |  |  | 
